pIC50: −log10 of the molar value. Values joined by “and” are separate entries in the source; they are usually repeats but may differ in a detail not shown here. Identical values can stand only once.
Key:
PSA [1] = assay: Western blot of PSA expression in C4–2 cells; type: cell-based, human; conditions: C4–2 cells
Experimental: Cell lysate protein concentrations were determined in a bicinchoninic acid (BCA) assay. Equal amounts of cell protein were mixed with SDS-PAGE sample buffer and placed in a heat block at 100 °C for 5 min. The protein constituents of C4–2 cells were separated by SDS-PAGE on 10% separating gels, transferred to nitrocellulose membranes and western blots were probed overnight at 4 °C with a 1:1000 dilution of a rabbit anti-hPSA (Cell Signaling, Danvers, MA) primary antibody in Tris-buffered saline (TBS) Tween 20 (TBST) containing 5% non-fat milk. Membranes were washed 3x in TBST for 10 min, then incubated for 1 h at room temperature with a 1:10,000 dilution of the goat anti-rabbit IgG horse radish peroxidase (HRP) conjugated secondary antibody (Invitrogen, Carlsbad, CA) in TBST containing 5% non-fat milk. Western blots were then washed 3x in TBST and developed with Pierce enhanced chemiluminescence (ECL) western blotting substrate (Thermo Fisher Scientific, Waltham, MA). Images of western blot ECL bands were acquired on an iBright 1500 imaging system (Thermo Fisher Scientific, Waltham, MA) and quantified by iBright image analysis software.

PSA [2] = assay: Dot blot of PSA secretion by C4–2 cells; type: cell-based, human; conditions: C4–2 cells; 10 nM DHT 24 h
Experimental: To determine PSA secretion levels, C4–2 cells were seeded at 1.4 × 10 [5] cells/well in 12-well plates and treated as described above for PSA cell expression experiments. […] 500 μL of conditioned media supernatant was added to the wells of 96-well to Bio-blot apparatus (BioRad, Hercules, CA) containing a nitrocellulose membrane and was allowed to pass through and attach to the membrane under gravity for 3–4 h at room temperature. The membrane was washed 1x with 500 μL TBS under vacuum, blocked with 1% BSA in TBST for 1 h, and then incubated overnight at 4 °C with the primary rabbit anti-hPSA antibody (Cell Signaling, Danvers, MA) diluted 1:1000 in TBST plus 1% BSA. Dot blots were washed 3x in 10 mL of TBST for 10 min, then incubated for 1 h with secondary goat anti-rabbit-IgG HRP conjugated antibody (Invitrogen, Carlsbad, CA) diluted 1:10,000 in TBST plus 1% Bovine Serum Albumin (BSA), washed 3x with 10 mL of TBST for 10 min, and then developed with Pierce ECL western blotting substrate. Images of ECL dot blots were acquired on an iBright 1500 imaging system and quantified by iBright image analysis software.

AR-TIF2 PPI [3] = biological target: T1, AR-TIF2 PPI (Homo sapiens, UniProt P10275); assay: AR-TIF2 PPI biosensor (PPIB) HCS assay, inhibition of DHT-induced AR-TIF2 PPI formation; type: cell-based; conditions: U-2 OS cells; compounds 3 h prior to 25 nM DHT for 90 min
T1 construct: expressed in transfected cells; host or cells: U-2 OS osteosarcoma cells, co-infected with recombinant adenoviruses
T1 sequence (P10275 663-920 limits assumed): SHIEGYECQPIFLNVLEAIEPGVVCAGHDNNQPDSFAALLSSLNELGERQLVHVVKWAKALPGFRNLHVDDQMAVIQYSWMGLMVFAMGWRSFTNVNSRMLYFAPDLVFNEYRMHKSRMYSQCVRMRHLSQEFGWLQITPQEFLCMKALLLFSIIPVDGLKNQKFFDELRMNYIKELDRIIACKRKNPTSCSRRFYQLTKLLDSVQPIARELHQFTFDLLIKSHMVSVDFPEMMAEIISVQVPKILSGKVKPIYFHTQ
Experimental: (§1) Daughter plates containing 2 μL of the serially diluted compounds in DMSO were prepared and replicated from 384-well serial dilution master plates using a Janus MDT platform outfitted with a 384-well transfer head. Aluminum adhesive plate seals were applied, and plates were stored at −20 °C. For bioassay testing, daughter plates were withdrawn from −20 °C storage, thawed to ambient temperature, and centrifuged for 1 min at 100 × g, and plate seals were removed before 38 μL of serum-free media (SFM) was transferred into wells using a Matrix pipettor (ThermoFisher, Waltham, MA), to generate an intermediate stock concentration of validation compounds ranging from 0.977 to 500 μM (5.0% DMSO). Diluted compounds were mixed by repeated aspiration and dispensation using a 384-well P30 dispensing head on the Janus MDT platform and then, 5 μL of diluted compounds was transferred to assay plate wells to provide a final concentration range from 0.0977 to 50 μM (0.5% DMSO).
(§2) The AR-TIF2 PPIB HCS assay was performed in U-2 OS osteosarcoma cells as described previously. Briefly, U-2 OS cells were coinfected with recombinant adenovirus biosensor expression constructs and seeded at 2500 cells per well in 384-well collagen-coated microplates (Greiner BioOne #781956) and plates were incubated overnight at 37°C in 5% CO2 and 95% humidity. […] After the appropriate time, assay plates were fixed by transfer of 50 μL of pre-warmed (37°C) 7.4% formaldehyde and 2 μg/mL Hoechst 33342 in PBS and incubation at room temperature for 30 min. Liquid was aspirated, plates were washed twice with 85 μL PBS, leaving the final wash in the plate. Plates were sealed with adhesive aluminum plate seals, and fluorescent images of three fields of view were acquired in the DAPI (Hoechst stained nuclei), FITC (TIF2-GFP) and Texas Red (AR-RFP) channels on an ImageXpress Micro (IXM) automated HCS platform (Molecular Devices LLC, Sunnyvale, CA) using a 10X Plan Fluor 0.3 NA objective. Images were analyzed using the Translocation Enhanced (TE) image analysis module of the MetaXpress software as described previously.
(§3) In 384-well assays, DMSO minimum (n = 32) and maximum (n = 32) plate control wells were utilized to calculate signal-to-background ratios (S:B) and Z’-factor coefficient assay performance quality control statistics, and to normalize the signals of compound treated wells and to represent 0% and 100% respectively. For the 96-well AR-LBD H^3-DHT radioligand binding assay, eight minimum and maximum plate control wells were utilized to normalize the data. For the PC cell line growth inhibition assays we used the DMSO control data from the T0 and T72 assay plates to assess the dynamic range of the T0 to T72 cell growth, and to calculate S:B ratios and Z’-factor coefficient statistics for the assay signal window (T0 to T72). To normalize the 72 h compound exposure PC growth inhibition data, the signals from the compound treated wells were processed and expressed as% of the T72 DMSO plate controls. IC50 and GI50 values for each of the bioassays were calculated using Graph-Pad Prism 9 software to plot and fit data to curves using the Sigmoidal dose response variable slope equation Y = Bottom + [Top-Bottom]/ [1 + 10^^(LogEC50-X)*HillSlope].

AR-TIF2 PPI [4] = biological target: T1, AR-TIF2 PPI; assay: AR-TIF2 PPI biosensor (PPIB) HCS assay, disruption of pre-formed AR-TIF2 PPI complexes; type: cell-based; conditions: U-2 OS cells; 25 nM DHT 90 min prior to compounds for 3 h
Experimental: as §1, §2, §3

U-2 OS cells = assay: AR-TIF2 PPIB cell loss (Hoechst stained nuclei); type: cell-based; conditions: 4.5 h compound exposure
Experimental: as §2

DU-145 cells = assay: Prostate cancer cell line growth inhibition assay, DU-145; type: cell-based; conditions: Homo sapiens, DU-145, 72 h; read-out: DU145 GI50 (AR−)
Experimental: (§4) The PC-3, DU-145, LNCaP, C4–2, and 22Rv1 PC cell line growth inhibition assays have been described previously. On day 1, each PC cell line was harvested, counted, and seeded into two 384-well assay plates, a time zero (T0) and a time 72 h (T72) plate. PC cell lines were all seeded at 1000 cells per well in 45 μL of tissue culture media in uncoated white clear bottom 384-well assay plates (VWR, # 82050–076) using a Matrix electronic multichannel pipette (Thermo Fisher Scientific, Waltham, MA) and cultured overnight at 37 °C, 5% CO2, and 95% humidity. On day 2, 25 μL of the Cell Titer Glo (CTG) (Promega Corporation, Madison, WI) detection reagent was dispensed into the wells of the T0 assay plate using a Matrix electronic multichannel pipette, and the RLUs were captured on the SpectraMax M5e (Molecular Devices LLC, Sunnyvale, CA) microtiter plate reader. Also on day 2, 5 μL of compounds were transferred into the test wells of the T72 384-well assay plates which were returned to the incubator for 72 h. Control wells received DMSO alone. On day 5, 25 μL of the CTG detection reagent was dispensed into the wells of the T72 assay plate using a Matrix electronic multichannel pipette, and the RLU’s were captured on the SpectraMax M5e microtiter plate reader platform.
as §3

PC-3 cells = assay: Prostate cancer cell line growth inhibition assay, PC-3; type: cell-based; conditions: Homo sapiens, PC-3, 72 h, read-out: PC3 GI50 (AR−)
Experimental: as §4, §3

22Rv1 cells = assay: Prostate cancer cell line growth inhibition assay, 22Rv1; type: cell-based; conditions: Homo sapiens, 22Rv1, 72 h; read-out: 22Rv1 GI50 (AR+)
Experimental: as §4, §3

LNCaP cells = assay: Prostate cancer cell line growth inhibition assay, LNCaP; type: cell-based; conditions: Homo sapiens, LNCaP, 72 h; read-out: LNCap GI50 (AR+)
Experimental: as §4, §3

C4–2 cells = assay: Prostate cancer cell line growth inhibition assay, C4–2; type: cell-based; conditions: C4-2, 72 h; read-out: C4–2 GI50 (AR +)
Experimental: as §4, §3

[5] = tested on: PC cell lines positive (LNCaP, C4–2, & 22Rv1 cells) or negative (PC-3 & DU-145) for AR; assay: Prostate cancer cell line growth inhibition assays, panel statements; type: cell-based; conditions: ALL5; all 5 PC cell lines; 72 h; ≥50% growth inhibition not achieved at ≤100 μM; read-out: GI50 in any PC cell line
Experimental: as §4, §3

[6] = tested on: LNCaP mouse xenograft models; conditions: cited from earlier work

C[C@]12CCC(=O)C[C@@H]1CC[C@@H]1[C@@H]2CC[C@]2(C)[C@@H](O)CC[C@@H]12 [DHT, 5α-dihydrotestosterone, reference compound]
Increase of PSA levels in cells over untreated controls (PSA [1]; 10 nM DHT 24 h): 12.3 fold and 11.4 fold
Increase of PSA levels in conditioned media over untreated controls (PSA [2]): 2.4 fold

Cc1nsc(NC(=O)N2CCC(N3CCCC3=O)CC2)n1 [S2–9]
pIC50 (AR-TIF2 PPI [3]): < 4.00
pIC50 (AR-TIF2 PPI [4]): < 4.00
AR-TIF2 PPIB Cell Loss (U-2 OS cells): >100 µM
GI50 (DU-145 cells): > 100 µM
GI50 (PC-3 cells): > 100 µM
GI50 (22Rv1 cells): > 100 µM
GI50 (LNCaP cells): > 100 µM
GI50 (C4–2 cells): > 100 µM
GI50 [5]: > 100 µM

Cc1nsc(NC(=O)N2CCC(F)CC2)n1 [S2–10]
AR-TIF2 PPIB Cell Loss (U-2 OS cells): >100 µM
GI50 (DU-145 cells): > 100 µM
GI50 (PC-3 cells): > 100 µM
GI50 (22Rv1 cells): > 100 µM
GI50 (LNCaP cells): > 100 µM
GI50 (C4–2 cells): > 100 µM
GI50 [5]: > 100 µM

Cc1c(-c2ccccc2F)[nH]c2ccc(CNC(=O)c3cc[nH]n3)cc12 [S3–16]
pIC50 (AR-TIF2 PPI [3]): 4.54

Cc1c(-c2ccccc2F)[nH]c2ccc(CNC(=O)CCC3=NNC(=O)CC3)cc12 [S3–18]
pIC50 (AR-TIF2 PPI [3]): 4.40
pIC50 (AR-TIF2 PPI [4]): < 4.00

Cc1c(-c2ccccc2F)[nH]c2ccc(CNC(=O)Cc3cccnc3)cc12 [S3–19]
pIC50 (AR-TIF2 PPI [3]): 4.16
pIC50 (AR-TIF2 PPI [4]): < 4.00

CCc1[nH]c2c(CNC(=O)CCCc3cn[nH]c3)cc(F)cc2c1C [S3–25]
pIC50 (AR-TIF2 PPI [3]): 4.11

Cc1cccc2c(-c3ccc4ccccc4n3)c[nH]c12 [VPC-13566, 2-(7-methyl-1H-indol-3-yl) quinoline]
CRPC tumor growth and serum PSA levels [6]: reduced CRPC tumor growth and serum PSA levels

CC(C)NC(=O)c1cccc2nc(-c3cn(COP(=O)([O-])[O-])c4c(F)c(F)c(F)cc34)ccc12.[Na+].[Na+] [VPC-13822]
PSA production and CRPC tumor volume [6]: reduced PSA production and CRPC tumor volume
Toxicity in xenograft models ([6]; mouse, in vivo): no observable toxicity

CNC(=O)c1ccc(N2C(=S)N(c3ccc(C#N)c(C(F)(F)F)c3)C(=O)C2(C)C)cc1F [enzalutamide, reference compound]
Reduction of DHT-enhanced PSA expression levels (PSA [1]; 25 μM for 3 h prior to 10 nM DHT, 24 h): 7.5 fold
Reduction of endogenous PSA expression levels (PSA [1]; 25 μM for 3 h prior to media, 24 h): 3.3 fold

Source: article PMC12366525, “Characterization of allosteric modulators that disrupt androgen receptor co-activator protein-protein interactions to alter transactivation–Drug leads for metastatic castration resistant prostate cancer” (SLAS discovery : advancing life sciences R & D, 2023)
